How the values were obtained:
Format in all cases: in vivo
[1] = tested on: redroot pigweed (Amaranthus retroflexus, AMARE); test: Pre-emerge test, greenhouse herbicide activity screening; settings: pre-emerge, rated 14 days after application, 0 = no damage, 100 = complete death
Procedure, shortened: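 Compounds in acetone were track-sprayed at 187 l/ha, 15–1000 g ai/ha, onto sandy loam pots. Pre-emerge seeds were sown one day before spraying, with surface watering afterwards. Post-emerge plants were at the 2–3 leaf stage and sprayed with 0.25% v/v non-ionic surfactant. Injury was rated 0–100 at 14 days.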

[2] = tested on: barnyardgrass (Echinochloa crus-galli, ECHCG); test: as above; settings: pre-emerge, rated 14 days after application, 0 = no damage, 100 = complete death
Procedure, shortened: (§1)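 Sandy loam pots; pre-emerge: sown 1 d pre-spray, surface-watered after, then bottom-watered. Post-emerge: sown 8–21 d before, 2–3 leaf stage, + 0.25% v/v NIS, bottom-watered. Acetone, 187 l/ha track spray, 15–1000 g ai/ha. 0–100 injury score, day 14.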

[3] = tested on: green foxtail (Setaria viridis, SETVI); test: as above; settings: pre-emerge, rated 14 days after application, 0 = no damage, 100 = complete death
Procedure, shortened: as §1

[4] = tested on: ivyleaf morningglory (Ipomoea hederacea, IPOHE); test: as above; settings: pre-emerge, rated 14 days after application, 0 = no damage, 100 = complete death
Procedure, shortened: as §1

[5] = tested on: johnsongrass (Sorghum halepense, SORHA); test: as above; settings: pre-emerge, rated 14 days after application, 0 = no damage, 100 = complete death
Procedure, shortened: as §1

[6] = tested on: lambsquarters (Chenopodium album, CHEAL); test: as above; settings: pre-emerge, rated 14 days after application, 0 = no damage, 100 = complete death
Procedure, shortened: as §1

[7] = tested on: large crabgrass (Digitaria sanguinalis, DIGSA); test: as above; settings: pre-emerge, rated 14 days after application, 0 = no damage, 100 = complete death
Procedure, shortened: as §1

[8] = tested on: sicklepod (Cassia obtusifolia, CASOB); test: as above; settings: pre-emerge, rated 14 days after application, 0 = no damage, 100 = complete death
Procedure, shortened: as §1

[9] = tested on: velvetleaf (Abutilon theophrasti, ABUTH); test: as above; settings: pre-emerge, rated 14 days after application, 0 = no damage, 100 = complete death
Procedure, shortened: as §1

[10] = tested on: field corn (Zea mays L., var. Dekalb 535, CORN); test: Pre-emerge test, crop safety; settings: pre-emerge, rated 14 days after application, 0 = no damage, 100 = complete death
Procedure, shortened: (§2)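 Rating: 0–100 visual injury, 14 DAA. Application: acetone, 187 l/ha, 15–1000 g ai/ha, flat-fan track sprayer with nozzle 40–45 cm above soil or canopy. Post-emerge runs used 0.25% v/v surfactant on 2–3 leaf plants.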

[11] = tested on: upland rice (Oryza sp., var. Tebonnet, RICE); test: Pre-emerge test, crop safety; settings: pre-emerge, rated 14 days after application, 0 = no damage, 100 = complete death
Procedure, shortened: as §2

[12] = tested on: barnyardgrass (Echinochloa crus-galli, ECHCG); test: Post-emerge test, greenhouse herbicide activity screening; settings: phytotoxicity rating 0-100 (0 no damage, 100 complete death), 14 days after application
Procedure, shortened: (§3)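 Compounds in acetone were track-sprayed at 15–1000 g ai/ha: pre-emergence onto soil sown the previous day, then top-watered to incorporate and later bottom-watered; post-emergence onto 2–3 leaf plants with 0.25% v/v surfactant, bottom-watered only. Ratings on a 0–100 phytotoxicity scale were taken at day 14.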

[13] = tested on: green foxtail (Setaria viridis, SETVI); test: as above; settings: phytotoxicity rating 0-100 (0 no damage, 100 complete death), 14 days after application
Procedure, shortened: as §3

[14] = tested on: ivyleaf morningglory (Ipomoea hederacea, IPOHE); test: as above; settings: phytotoxicity rating 0-100 (0 no damage, 100 complete death), 14 days after application
Procedure, shortened: as §3

[15] = tested on: johnsongrass (Sorghum halepense, SORHA); test: as above; settings: phytotoxicity rating 0-100 (0 no damage, 100 complete death), 14 days after application
Procedure, shortened: as §3

[16] = tested on: lambsquarters (Chenopodium album, CHEAL); test: as above; settings: phytotoxicity rating 0-100 (0 no damage, 100 complete death), 14 days after application
Procedure, shortened: as §3

[17] = tested on: large crabgrass (Digitaria sanguinalis, DIGSA); test: as above; settings: phytotoxicity rating 0-100 (0 no damage, 100 complete death), 14 days after application
Procedure, shortened: as §3

[18] = tested on: redroot pigweed (Amaranthus retroflexus, AMARE); test: as above; settings: phytotoxicity rating 0-100 (0 no damage, 100 complete death), 14 days after application
Procedure, shortened: as §3

[19] = tested on: sicklepod (Cassia obtusifolia, CASOB); test: as above; settings: phytotoxicity rating 0-100 (0 no damage, 100 complete death), 14 days after application
Procedure, shortened: as §3

[20] = tested on: velvetleaf (Abutilon theophrasti, ABUTH); test: as above; settings: phytotoxicity rating 0-100 (0 no damage, 100 complete death), 14 days after application
Procedure, shortened: as §3

[21] = tested on: field corn (Zea mays L., var. Dekalb 535, CORN); test: Post-emerge test, crop safety; settings: phytotoxicity rating 0-100 (0 no damage, 100 complete death), 14 days after application
Procedure, shortened: as §1

[22] = tested on: upland rice (Oryza sp., var. Tebonnet, RICE); test: Post-emerge test, crop safety; settings: phytotoxicity rating 0-100 (0 no damage, 100 complete death), 14 days after application
Procedure, shortened: as §1

COc1c(Cl)cc(F)c(-n2c(=O)cc(C(F)(F)F)n(C)c2=O)c1N(C(=O)C=C(C)C)C(=O)C=C(C)C [2-8]
Pre-emerge Herbicidal Activity AMARE (phytotoxicity rating, scale 0-100) ([1]; 63 g ai/ha): 40 | Pre-emerge Herbicidal Activity AMARE (phytotoxicity rating, scale 0-100) ([1]; 250 g ai/ha): 100 | Pre-emerge Herbicidal Activity ECHCG (phytotoxicity rating, scale 0-100) ([2]; 63 g ai/ha): 0 | Pre-emerge Herbicidal Activity ECHCG (phytotoxicity rating, scale 0-100) ([2]; 250 g ai/ha): 0 | Pre-emerge Herbicidal Activity SETVI (phytotoxicity rating, scale 0-100) ([3]; 63 g ai/ha): 90 | Pre-emerge Herbicidal Activity SETVI (phytotoxicity rating, scale 0-100) ([3]; 250 g ai/ha): 90 | Pre-emerge Herbicidal Activity IPOHE (phytotoxicity rating, scale 0-100) ([4]; 63 g ai/ha): 0 | Pre-emerge Herbicidal Activity IPOHE (phytotoxicity rating, scale 0-100) ([4]; 250 g ai/ha): 100 | Pre-emerge Herbicidal Activity SORHA (phytotoxicity rating, scale 0-100) ([5]; 63 g ai/ha): 40 | Pre-emerge Herbicidal Activity SORHA (phytotoxicity rating, scale 0-100) ([5]; 250 g ai/ha): 40 | Pre-emerge Herbicidal Activity CHEAL (phytotoxicity rating, scale 0-100) ([6]; 63 g ai/ha): 60 | Pre-emerge Herbicidal Activity CHEAL (phytotoxicity rating, scale 0-100) ([6]; 250 g ai/ha): 100 | Pre-emerge Herbicidal Activity DIGSA (phytotoxicity rating, scale 0-100) ([7]; 63 g ai/ha): 80 | Pre-emerge Herbicidal Activity DIGSA (phytotoxicity rating, scale 0-100) ([7]; 250 g ai/ha): 80 | Pre-emerge Herbicidal Activity CASOB (phytotoxicity rating, scale 0-100) ([8]; 63 g ai/ha): 0 | Pre-emerge Herbicidal Activity CASOB (phytotoxicity rating, scale 0-100) ([8]; 250 g ai/ha): 0 | Pre-emerge Herbicidal Activity ABUTH (phytotoxicity rating, scale 0-100) ([9]; 63 g ai/ha): 0 | Pre-emerge Herbicidal Activity ABUTH (phytotoxicity rating, scale 0-100) ([9]; 250 g ai/ha): 100 | Pre-emerge crop damage CORN (phytotoxicity rating, scale 0-100) ([10]; 63 g ai/ha): 15 | Pre-emerge crop damage CORN (phytotoxicity rating, scale 0-100) ([10]; 250 g ai/ha): 15 | Pre-emerge crop damage RICE (phytotoxicity rating, scale 0-100) ([11]; 63 g ai/ha): 50 | Pre-emerge crop damage RICE (phytotoxicity rating, scale 0-100) ([11]; 250 g ai/ha): 50 | Post-emerge Herbicidal Activity ECHCG ([12]; 63 g ai/ha): 0 | Post-emerge Herbicidal Activity ECHCG ([12]; 250 g ai/ha): 0 | Post-emerge Herbicidal Activity SETVI ([13]; 63 g ai/ha): 0 | Post-emerge Herbicidal Activity SETVI ([13]; 250 g ai/ha): 0 | Post-emerge Herbicidal Activity IPOHE ([14]; 63 g ai/ha): 0 | Post-emerge Herbicidal Activity IPOHE ([14]; 250 g ai/ha): 50 | Post-emerge Herbicidal Activity SORHA ([15]; 63 g ai/ha): 0 | Post-emerge Herbicidal Activity SORHA ([15]; 250 g ai/ha): 0 | Post-emerge Herbicidal Activity CHEAL ([16]; 63 g ai/ha): 0 | Post-emerge Herbicidal Activity CHEAL ([16]; 250 g ai/ha): 60 | Post-emerge Herbicidal Activity DIGSA ([17]; 63 g ai/ha): 0 | Post-emerge Herbicidal Activity DIGSA ([17]; 250 g ai/ha): 0 | Post-emerge Herbicidal Activity AMARE ([18]; 63 g ai/ha): 0 | Post-emerge Herbicidal Activity AMARE ([18]; 250 g ai/ha): 20 | Post-emerge Herbicidal Activity CASOB ([19]; 63 g ai/ha): 0 | Post-emerge Herbicidal Activity CASOB ([19]; 250 g ai/ha): 0 | Post-emerge Herbicidal Activity ABUTH ([20]; 63 g ai/ha): 0 | Post-emerge Herbicidal Activity ABUTH ([20]; 250 g ai/ha): 40 | Post-emerge Herbicidal Activity CORN (crop damage) ([21]; 63 g ai/ha): 0 | Post-emerge Herbicidal Activity CORN (crop damage) ([21]; 250 g ai/ha): 0 | Post-emerge Herbicidal Activity RICE (crop damage) ([22]; 63 g ai/ha): 0 | Post-emerge Herbicidal Activity RICE (crop damage) ([22]; 250 g ai/ha): 0

COc1c(Cl)cc(F)c(-n2c(=O)cc(C(F)(F)F)n(C)c2=O)c1N(C(=O)C1CC1)C(=O)C1CC1 [2-18]
Pre-emerge Herbicidal Activity AMARE (phytotoxicity rating, scale 0-100) ([1]; 63 g ai/ha): 40 | Pre-emerge Herbicidal Activity AMARE (phytotoxicity rating, scale 0-100) ([1]; 250 g ai/ha): 100 | Pre-emerge Herbicidal Activity ECHCG (phytotoxicity rating, scale 0-100) ([2]; 63 g ai/ha): 0 | Pre-emerge Herbicidal Activity ECHCG (phytotoxicity rating, scale 0-100) ([2]; 250 g ai/ha): 0 | Pre-emerge Herbicidal Activity SETVI (phytotoxicity rating, scale 0-100) ([3]; 63 g ai/ha): 0 | Pre-emerge Herbicidal Activity SETVI (phytotoxicity rating, scale 0-100) ([3]; 250 g ai/ha): 80 | Pre-emerge Herbicidal Activity IPOHE (phytotoxicity rating, scale 0-100) ([4]; 63 g ai/ha): 0 | Pre-emerge Herbicidal Activity IPOHE (phytotoxicity rating, scale 0-100) ([4]; 250 g ai/ha): 40 | Pre-emerge Herbicidal Activity SORHA (phytotoxicity rating, scale 0-100) ([5]; 63 g ai/ha): 0 | Pre-emerge Herbicidal Activity SORHA (phytotoxicity rating, scale 0-100) ([5]; 250 g ai/ha): 0 | Pre-emerge Herbicidal Activity CHEAL (phytotoxicity rating, scale 0-100) ([6]; 63 g ai/ha): 10 | Pre-emerge Herbicidal Activity CHEAL (phytotoxicity rating, scale 0-100) ([6]; 250 g ai/ha): 90 | Pre-emerge Herbicidal Activity DIGSA (phytotoxicity rating, scale 0-100) ([7]; 63 g ai/ha): 0 | Pre-emerge Herbicidal Activity DIGSA (phytotoxicity rating, scale 0-100) ([7]; 250 g ai/ha): 0 | Pre-emerge Herbicidal Activity CASOB (phytotoxicity rating, scale 0-100) ([8]; 63 g ai/ha): 0 | Pre-emerge Herbicidal Activity CASOB (phytotoxicity rating, scale 0-100) ([8]; 250 g ai/ha): 40 | Pre-emerge Herbicidal Activity ABUTH (phytotoxicity rating, scale 0-100) ([9]; 63 g ai/ha): 0 | Pre-emerge Herbicidal Activity ABUTH (phytotoxicity rating, scale 0-100) ([9]; 250 g ai/ha): 100 | Pre-emerge crop damage CORN (phytotoxicity rating, scale 0-100) ([10]; 63 g ai/ha): 0 | Pre-emerge crop damage CORN (phytotoxicity rating, scale 0-100) ([10]; 250 g ai/ha): 0 | Pre-emerge crop damage RICE (phytotoxicity rating, scale 0-100) ([11]; 63 g ai/ha): 0 | Pre-emerge crop damage RICE (phytotoxicity rating, scale 0-100) ([11]; 250 g ai/ha): 20 | Post-emerge Herbicidal Activity ECHCG ([12]; 63 g ai/ha): 0 | Post-emerge Herbicidal Activity ECHCG ([12]; 250 g ai/ha): 0 | Post-emerge Herbicidal Activity SETVI ([13]; 63 g ai/ha): 0 | Post-emerge Herbicidal Activity SETVI ([13]; 250 g ai/ha): 0 | Post-emerge Herbicidal Activity IPOHE ([14]; 63 g ai/ha): 0 | Post-emerge Herbicidal Activity IPOHE ([14]; 250 g ai/ha): 30 | Post-emerge Herbicidal Activity SORHA ([15]; 63 g ai/ha): 0 | Post-emerge Herbicidal Activity SORHA ([15]; 250 g ai/ha): 0 | Post-emerge Herbicidal Activity CHEAL ([16]; 63 g ai/ha): 0 | Post-emerge Herbicidal Activity CHEAL ([16]; 250 g ai/ha): 50 | Post-emerge Herbicidal Activity DIGSA ([17]; 63 g ai/ha): 0 | Post-emerge Herbicidal Activity DIGSA ([17]; 250 g ai/ha): 0 | Post-emerge Herbicidal Activity AMARE ([18]; 63 g ai/ha): 0 | Post-emerge Herbicidal Activity AMARE ([18]; 250 g ai/ha): 95 | Post-emerge Herbicidal Activity CASOB ([19]; 63 g ai/ha): 0 | Post-emerge Herbicidal Activity CASOB ([19]; 250 g ai/ha): 10 | Post-emerge Herbicidal Activity ABUTH ([20]; 63 g ai/ha): 0 | Post-emerge Herbicidal Activity ABUTH ([20]; 250 g ai/ha): 40 | Post-emerge Herbicidal Activity CORN (crop damage) ([21]; 63 g ai/ha): 0 | Post-emerge Herbicidal Activity CORN (crop damage) ([21]; 250 g ai/ha): 0 | Post-emerge Herbicidal Activity RICE (crop damage) ([22]; 63 g ai/ha): 0 | Post-emerge Herbicidal Activity RICE (crop damage) ([22]; 250 g ai/ha): 0
